The results in this text go back to US20180118707A1, “BETA-NAPHTHOISOFLAVONES, COMPOSITIONS CONTAINING, AND USES OF, SAME” (Thesan Pharmaceuticals, Inc., priority 2015, published 2018).

In this data set the test system is HepG2 cells. The data set is described as follows: MTT cytotoxicity assay in HepG2 cells after EROD. The format is cell-based, human. The protocol:
The formation of resorufin is quantified by fluorometry with a fluorescence plate reader. Fluorescence is determined at λex 570 nm and λem 590 nm. The amount of resorufin is calculated from a standard curve generated using 0 to 1 μM resorufin in water at ½ log dilutions. The remaining (i.e. all cells present at the beginning of analysis, since only supernatant is taken to assay EROD) live cells are subsequently utilized for the MIT cytotoxicity assay. MTT is made up in serum-free medium at 5 mg/ml. then added to the cells giving a final concentration of 10% (0.5 mg/ml MTT final) then incubated for 2 h. The medium is carefully removed, then MTT formazan is solubilized by adding 200 μl of DMSO and subsequently mixed on a plate shaker. The absorbance is measured spectra photometrically at 550 nm and background absorbance at 690 nm is subtracted.

For the compound `O=c1cc(-c2ccccc2)oc2ccc3ccccc3c12` [D, 3-Phenyl-1H-benzo[f]chromen-1-one, reference compound], the Toxicity threshold is over 50 µM.
